# In patent publication US20050215607A1, “Drug composition for prevention or inhibition of advance of diabetic complication” (priority 2002, published 2005):
# Where a name gives a salt, the structure may show the parent alone.
# Assays:
# [1] = Required single dose to reduce HbA1C value; format: in vivo; conditions: as a single dose
# [2] = Disposition (half-life) of mitiglinide; conditions: human, in vivo, oral; single dose of 5 mg and more
# [3] = system: type II diabetic patients; assay: Clinical study in type II diabetic patients; format: in vivo, human; conditions: for Change in HbA1C value, mean value: three times a day just before meals; for Change in 1 hour value of postprandial plasma glucose (PPG), mean value / Change in 2 hour value of postprandial plasma glucose (PPG), mean value / Change in early morning fasting plasma glucose (FPG), mean: at the final evaluation
# Description: Using the pharmaceutical composition described in Example 1, a clinical study was conducted in type II diabetic patients under the following conditions.
# Test drug and Mode of administration: Every patient orally administered either of a combination selected from the following combination groups (one tablet from each) three times a day just before meals (within 5 minutes before starting meal): • The present invention group: (1)+(4) • Positive control group: (2)+(3) • Positive control group: (3)+(4) • (1) a tablet comprising 10 mg of mitiglinide calcium salt hydrate; • (2) a tablet comprising 0.2 mg of voglibose (chemical name: (+)-1L-[1(OH),2,4,5/3]-5-[2-hydroxy-1-(hydroxymethyl)-ethyl]amino-1-C-(hydroxymethyl)-1,2,3,4-cyclohexaneterol); • (3) a placebo tablet of mitiglinide calcium salt hydrate not containing any active ingredient; and • (4) a placebo tablet of voglibose not containing any active ingredient. • Treatment period: 12 weeks
# Observation item: The following items were measured before administration, at a certain fixed time after the start of administration and at the completion of administration, and their changes were calculated, or the frequency of adverse drug reactions was calculated, and then evaluated.
# healthy male adults = assay: Clinical study on administration timing; format: in vivo, human
# Description: Administration timing before taking a meal was evaluated in healthy male adults. Used test drugs were a tablet comprising 10 mg of mitiglinide calcium salt hydrate and a placebo tablet. The tablet comprising 10 mg of mitiglinide calcium salt hydrate was administered at 0.5 min, 5 min, 10 min or 30 min before starting meal (Positive group), while the placebo tablet was administered at 0.5 min before starting meal. After administration, blood glucose levels were measured at starting meal and evaluated.
# [4] = in comparison with voglibose and placebo
structure (smiles),measurement,setting,value
O=C(O)[C@H](CC(=O)N1C[C@H]2CCCC[C@H]2C1)Cc1ccccc1 [mitiglinide],required dosage to reduce HbA1C value significantly,[1],≥ 5 mg
same,half-life,[2],~1.5 h
"O=C(O)[C@H](CC(=O)N1C[C@H]2CCCC[C@H]2C1)Cc1ccccc1 [Mitiglinide calcium salt hydrate, (+)-monocalcium bis[(2S, 3a, 7a-cis)-α-benzylhexahydro-γ-oxo-2-isoindolinebutyrate] dihydrate]","Change in HbA1C value, mean value",[3]; 4 weeks,−0.30%
same,"Change in HbA1C value, mean value",[3]; 8 weeks,−0.46%
same,"Change in HbA1C value, mean value",[3]; 12 weeks,−0.46%
same,HbA1C value (result in words),"[3]; after 4 weeks after the start of administration, in comparison with voglibose and placebo",significantly lowered
same,"Change in 1 hour value of postprandial plasma glucose (PPG), mean value",[3]; treatment period 12 weeks,-53.1 mg/dL
same,"Change in 2 hour value of postprandial plasma glucose (PPG), mean value",[3]; treatment period 12 weeks,-50.1 mg/dL
same,"Change in early morning fasting plasma glucose (FPG), mean",[3]; treatment period 12 weeks,-8.0 mg/dL
same,frequencies of hypoglycemic symptoms and gastrointestinal disorders (result in words),"[3]; human, in vivo",decreased
same,Frequency of adverse drug reactions: gastrointestinal disorder,"[3]; human, in vivo, 12 weeks",17.6%
same,Frequency of adverse drug reactions: hypoglycemic symptoms,"[3]; human, in vivo, 12 weeks",2.0%
same,1 hour and 2 hour values of postprandial plasma glucose (PPG) (result in words),[3]; [4],significantly lowered
same,early morning fasting plasma glucose (FPG) (result in words),[3]; [4],significantly lowered
same,"Change in HbA1C value, mean value",[3]; the final evaluation,−0.44%
same,"Blood glucose level at starting meal, mean",healthy male adults; 10 mg tablet administered 0.5 min before starting meal,87.0 mg/dL
same,"Blood glucose level at starting meal, mean",healthy male adults; 10 mg tablet administered 5 min before starting meal,83.8 mg/dL
same,"Blood glucose level at starting meal, mean",healthy male adults; 10 mg tablet administered 10 min before starting meal,84.2 mg/dL
same,"Blood glucose level at starting meal, mean",healthy male adults; 10 mg tablet administered 30 min before starting meal,55.7 mg/dL
same,blood glucose level at starting meal (result in words),healthy male adults; administered at 30 minutes before starting meal,notably declined
same,blood glucose level at starting meal (result in words),healthy male adults; administered within 10 minutes before starting meal,able to maintain good blood glucose level
"OCC(CO)N[C@H]1C[C@](O)(CO)[C@@H](O)[C@H](O)[C@H]1O [voglibose, (+)-1L-[1(OH),2,4,5/3]-5-[2-hydroxy-1-(hydroxymethyl)-ethyl]amino-1-C-(hydroxymethyl)-1,2,3,4-cyclohexaneterol, reference compound]","Change in HbA1C value, mean value",[3]; 4 weeks,−0.14%
same,"Change in HbA1C value, mean value",[3]; 8 weeks,−0.14%
same,"Change in HbA1C value, mean value",[3]; 12 weeks,−0.11%
same,"Change in 1 hour value of postprandial plasma glucose (PPG), mean value",[3]; treatment period 12 weeks,-24.8 mg/dL
same,"Change in 2 hour value of postprandial plasma glucose (PPG), mean value",[3]; treatment period 12 weeks,-5.1 mg/dL
same,"Change in early morning fasting plasma glucose (FPG), mean",[3]; treatment period 12 weeks,0.5 mg/dL
same,HbA1C value (result in words),[3]; in comparison with placebo,significantly lowered
same,"Change in HbA1C value, mean value",[3]; the final evaluation,−0.11%
same,Frequency of adverse drug reactions: gastrointestinal disorder,[3]; treatment period 12 weeks,24.5%
same,Frequency of adverse drug reactions: hypoglycemic symptoms,[3]; treatment period 12 weeks,4.5%
